Reference: ChEMBL document CHEMBL1131690, “Synthesis and evaluation of anthranilic acid-based transthyretin amyloid fibril inhibitors” (Bioorg Med Chem Lett, 1999)

Assays:
[1] = Binding parameter for complete inhibition of Wild type Transthyretin amyloid fibril formation at pH 4.4 with negative cooperativity by the compound at a concentration of (10.8)
[2] = Concentration completly inhibiting Wild type TTR amyloid fibril formation at pH 4.4; assay type: functional

Row | Compound | KD1 [1] | KD2 [1] | Concentration [2]
1 | O=C(O)c1ccccc1Nc1cccc(C(F)(F)F)c1 | 30.1 nM | 255 nM | 
2 | O=C(O)c1cccc(Nc2ccccc2C(=O)O)c1 |  |  | 7.6 µM
